What was measured:
[1] = tested on: Plasmodium falciparum; test: Antiplasmodial activity against chloroquine-resistant Plasmodium falciparum W2 assessed as inhibition of parasite growth incubated for 48 hrs by SYBR green 1 dye based fluorescence assay; assay type: functional, organism-based
[2] = tested on: Plasmodium falciparum; test: Antiplasmodial activity against chloroquine-sensitive Plasmodium falciparum 3D7 assessed as inhibition of parasite growth incubated for 48 hrs by SYBR green 1 dye based fluorescence assay; assay type: functional, organism-based
[3] = tested on: HEK293; test: Cytotoxicity against human HEK293 cells assessed as reduction in cell viability up to 500 ug/L incubated for 24 hrs by MTT assay; assay type: cell-based; details: hek293, 24 h
[4] = tested on: HEK293; test: Cytotoxicity against human HEK293 cells assessed as reduction in cell viability at 50,000 ug/L incubated for 24 hrs by MTT assay; assay type: cell-based; details: hek293, 24 h
[5] = Plasmodium falciparum, W2, 48 h
[6] = Plasmodium falciparum, 3D7, 48 h

Compound | IC50 [1] | IC50 [2] | Activity [3] | Activity [4] | IC50 [1, 5] | IC50 [2, 6]
CC(=O)OC[C@H]1O[C@@H](OCCCn2cc(COC[C@H]3O[C@@H](O[C@H]4[C@H](OCc5cn(CCCO[C@@H]6O[C@H](COC(C)=O)[C@@H](O)[C@H](O)[C@H]6O[C@@H]6O[C@@H](C)[C@H](OC(C)=O)[C@@H](OC(C)=O)[C@H]6OC(C)=O)nn5)[C@@H](OCc5cnnn5CCCO[C@@H]5O[C@H](COC(C)=O)[C@@H](O)[C@H](O)[C@H]5O[C@@H]5O[C@@H](C)[C@H](OC(C)=O)[C@@H](OC(C)=O)[C@H]5OC(C)=O)[C@H](OCc5cn(CCCO[C@@H]6O[C@H](COC(C)=O)[C@@H](O)[C@H](O)[C@H]6O[C@@H]6O[C@@H](C)[C@H](OC(C)=O)[C@@H](OC(C)=O)[C@H]6OC(C)=O)nn5)O[C@@H]4COCc4cn(CCCO[C@@H]5O[C@H](COC(C)=O)[C@@H](O)[C@H](O)[C@H]5O[C@@H]5O[C@@H](C)[C@H](OC(C)=O)[C@@H](OC(C)=O)[C@H]5OC(C)=O)nn4)[C@H](OCc4cnnn4CCCO[C@@H]4O[C@H](COC(C)=O)[C@@H](O)[C@H](O)[C@H]4O[C@@H]4O[C@@H](C)[C@H](OC(C)=O)[C@@H](OC(C)=O)[C@H]4OC(C)=O)[C@@H](OCc4cn(CCCO[C@@H]5O[C@H](COC(C)=O)[C@@H](O)[C@H](O)[C@H]5O[C@@H]5O[C@@H](C)[C@H](OC(C)=O)[C@@H](OC(C)=O)[C@H]5OC(C)=O)nn4)[C@H]3OCc3cnnn3CCCO[C@@H]3O[C@H](COC(C)=O)[C@@H](O)[C@H](O)[C@H]3O[C@@H]3O[C@@H](C)[C@H](OC(C)=O)[C@@H](OC(C)=O)[C@H]3OC(C)=O)nn2)[C@H](O[C@@H]2O[C@@H](C)[C@H](OC(C)=O)[C@@H](OC(C)=O)[C@H]2OC(C)=O)[C@@H](O)[C@@H]1O | 12.6 µM | 28.4 µM | – | – | – | –
CC(=O)OC[C@H]1O[C@@H](OCCCN=[N+]=[N-])[C@H](O[C@@H]2O[C@@H](C)[C@H](OC(C)=O)[C@@H](OC(C)=O)[C@H]2OC(C)=O)[C@@H](O)[C@@H]1O | – | – | Non-Toxic | Non-Toxic | 41.9 µM | 58.7 µM
CC(=O)OC[C@H]1O[C@@H](OCCCn2cc(COC[C@H]3O[C@@H](OCc4cn(CCCO[C@@H]5O[C@H](COC(C)=O)[C@@H](O)[C@H](O)[C@H]5O[C@@H]5O[C@@H](C)[C@H](OC(C)=O)[C@@H](OC(C)=O)[C@H]5OC(C)=O)nn4)[C@H](OCc4cnnn4CCCO[C@@H]4O[C@H](COC(C)=O)[C@@H](O)[C@H](O)[C@H]4O[C@@H]4O[C@@H](C)[C@H](OC(C)=O)[C@@H](OC(C)=O)[C@H]4OC(C)=O)[C@@H](OCc4cn(CCCO[C@@H]5O[C@H](COC(C)=O)[C@@H](O)[C@H](O)[C@H]5O[C@@H]5O[C@@H](C)[C@H](OC(C)=O)[C@@H](OC(C)=O)[C@H]5OC(C)=O)nn4)[C@H]3OCc3cn(CCCO[C@@H]4O[C@H](COC(C)=O)[C@@H](O)[C@H](O)[C@H]4O[C@@H]4O[C@@H](C)[C@H](OC(C)=O)[C@@H](OC(C)=O)[C@H]4OC(C)=O)nn3)nn2)[C@H](O[C@@H]2O[C@@H](C)[C@H](OC(C)=O)[C@@H](OC(C)=O)[C@H]2OC(C)=O)[C@@H](O)[C@@H]1O | – | – | – | – | 21.9 µM | 13 µM
CC(=O)OC[C@H]1O[C@@H](OCCCn2cc(COCCOCc3cn(CCCO[C@@H]4O[C@H](COC(C)=O)[C@@H](O)[C@H](O)[C@H]4O[C@@H]4O[C@@H](C)[C@H](OC(C)=O)[C@@H](OC(C)=O)[C@H]4OC(C)=O)nn3)nn2)[C@H](O[C@@H]2O[C@@H](C)[C@H](OC(C)=O)[C@@H](OC(C)=O)[C@H]2OC(C)=O)[C@@H](O)[C@@H]1O | – | – | – | – | 37.1 µM | 41.6 µM
CCCCCCCCCCCCCCCCO[C@@H]1O[C@H](COC(C)=O)[C@@H](O)[C@H](O)[C@H]1O[C@@H]1O[C@@H](C)[C@H](OC(C)=O)[C@@H](OC(C)=O)[C@H]1OC(C)=O | – | – | Non-Toxic | Toxic | 17.3 µM | 24.6 µM
CC(=O)OC[C@H]1O[C@@H](OCCCn2cc(COCC(COCc3cn(CCCO[C@@H]4O[C@H](COC(C)=O)[C@@H](O)[C@H](O)[C@H]4O[C@@H]4O[C@@H](C)[C@H](OC(C)=O)[C@@H](OC(C)=O)[C@H]4OC(C)=O)nn3)(COCc3cn(CCCO[C@@H]4O[C@H](COC(C)=O)[C@@H](O)[C@H](O)[C@H]4O[C@@H]4O[C@@H](C)[C@H](OC(C)=O)[C@@H](OC(C)=O)[C@H]4OC(C)=O)nn3)COCc3cn(CCCO[C@@H]4O[C@H](COC(C)=O)[C@@H](O)[C@H](O)[C@H]4O[C@@H]4O[C@@H](C)[C@H](OC(C)=O)[C@@H](OC(C)=O)[C@H]4OC(C)=O)nn3)nn2)[C@H](O[C@@H]2O[C@@H](C)[C@H](OC(C)=O)[C@@H](OC(C)=O)[C@H]2OC(C)=O)[C@@H](O)[C@@H]1O | – | – | – | – | 25.2 µM | 28.1 µM
CCN(CC)CCCC(C)Nc1ccnc2cc(Cl)ccc12 (configuration not stated) [CHLOROQUINE] | – | – | Non-Toxic | Toxic | – | –
CC(=O)OC[C@H]1O[C@@H](OCCCn2cc(COc3cc(OCc4cnnn4CCCO[C@@H]4O[C@H](COC(C)=O)[C@@H](O)[C@H](O)[C@H]4O[C@@H]4O[C@@H](C)[C@H](OC(C)=O)[C@@H](OC(C)=O)[C@H]4OC(C)=O)cc(OCc4cnnn4CCCO[C@@H]4O[C@H](COC(C)=O)[C@@H](O)[C@H](O)[C@H]4O[C@@H]4O[C@@H](C)[C@H](OC(C)=O)[C@@H](OC(C)=O)[C@H]4OC(C)=O)c3)nn2)[C@H](O[C@@H]2O[C@@H](C)[C@H](OC(C)=O)[C@@H](OC(C)=O)[C@H]2OC(C)=O)[C@@H](O)[C@@H]1O | – | – | – | – | 23.6 µM | 41.1 µM
CO[C@@H]1O[C@H](COC(C)=O)[C@@H](O)[C@H](O)[C@H]1O[C@@H]1O[C@@H](C)[C@H](OC(C)=O)[C@@H](OC(C)=O)[C@H]1OC(C)=O | – | – | – | – | 100 µM | 143 µM

— ChEMBL document CHEMBL4715746, “Polyvalent effect enhances diglycosidic antiplasmodial activity” (Eur J Med Chem, 2016)
